Measurements from patent US20170273922A1, “UREA AND BIS-UREA BASED COMPOUNDS AND ANALOGUES THEREOF USEFUL IN THE TREATMENT OF ANDROGEN RECEPTOR MEDIATED DISEASES OR DISORDERS” (THE ROYAL INSTITUTION FOR THE ADVACEMENT OF LEARNING/MCGILL …, priority 2014, published 2017).
Entries after “also recorded” stand apart in the source; their conditions may differ.

Legend:
LNCaP cells = assay: MTT assay (cytotoxicity), LNCaP cells; type: cell-based
Method in brief: (§1)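 Cells grown in RPMI 1640 with 10% FBS were seeded at 6-7×10^3 cells/well and left overnight. They were then exposed to compound or DMSO vehicle for 72 h in fresh medium. Viability was measured by MTT, in triplicate, with each experiment repeated at least twice.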

22Rv1 cells = assay: MTT assay (cytotoxicity), 22Rv1 cells; type: cell-based
Method in brief: as §1

H1975 cells = assay: MTT assay (cytotoxicity), H1975 cells; type: cell-based; settings: 72 h treatment, Table 6.1
Method: (§2) MTT assays: LNCaP, 22Rv1, Du145, H1975, A549, MB231 and MCF-7 cells are maintained in RPMI 1640 supplemented with 10% FBS. Cells were seeded at a density of 6-7×10^3 cells per well in 96-well plates. After overnight incubation, cells in fresh RPMI 1640 supplemented with 10% FBS were exposed to DMSO vehicle control or test compounds at designated concentrations for 72 h. Viable cells were evaluated by MTT assays. Experiments were performed in triplicate and repeated at least twice.

MCF-7 cells = assay: MTT assay (cytotoxicity), MCF-7 cells; type: cell-based; settings: 72 h treatment, Table 6.1
Method: as §2

[1] = tested on: liver hepatocellular carcinoma; assay: MTT assay (72 h), liver hepatocellular carcinoma cell line of Table 6.1; type: cell-based; settings: HepG2 cells, 72 h treatment, read-out: Cytotoxicity (IC50, μM) HepG2
A549 cells = assay: MTT assay (cytotoxicity), A549 cells; type: cell-based; settings: 72 h treatment, Table 6.1
Method: as §2

MB231 cells = assay: MTT assay (cytotoxicity), MB231 cells; type: cell-based; settings: 72 h treatment, Table 6.1
Method: as §2

full-length IRF3 = target: T1, full-length IRF3 (Homo sapiens, UniProt Q14653); assay: Full-length IRF3 ISRE-luc reporter assay; type: cell-based; settings: PC3 cells, 24 h
T1 construct: co-transfected with full-length IRF3 or IRF3DBD-AR(1-547) expressing plasmids; expressed in transfected cells
T1 sequence (Q14653 1-427): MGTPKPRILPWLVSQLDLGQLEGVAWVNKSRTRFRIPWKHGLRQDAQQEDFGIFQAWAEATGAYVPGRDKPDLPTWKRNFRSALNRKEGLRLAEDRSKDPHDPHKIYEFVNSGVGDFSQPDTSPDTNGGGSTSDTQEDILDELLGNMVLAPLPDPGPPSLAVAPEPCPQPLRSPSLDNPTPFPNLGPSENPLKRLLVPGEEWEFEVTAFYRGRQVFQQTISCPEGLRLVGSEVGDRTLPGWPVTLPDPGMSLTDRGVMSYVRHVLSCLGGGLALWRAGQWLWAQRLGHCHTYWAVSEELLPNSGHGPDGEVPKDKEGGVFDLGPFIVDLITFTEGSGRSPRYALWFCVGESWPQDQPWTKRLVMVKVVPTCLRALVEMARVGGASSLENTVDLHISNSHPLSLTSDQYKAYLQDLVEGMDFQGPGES
Source text: For all of the others, cells were co-transfected with full-length IRF3 or IRF3DBD-AR(1-547) expressing plasmids and with the ISRE-luc reporter and pRL-TK plasmids. […] As IRF3DBD-AR(1-547) contains the DBD of IRF3, ISRE-luc reporter instead of the PSA-luc reporter was used in our assays.
HEK293 cells were co-transfected with IRF3DBD(1-133) or IRF3DBD-AR(1-547) or IRF3DBD-AR(181-547) or full-length IRF3 expressing plasmids and with the ISRE-luc reporter and the Renilla luciferase pRL-TK plasmids.
Here, IRF3-AR(1-547) is the fusion of IRF3 DBD with the AR NTD (1-547). […] The plasmids expressing IRF3-AR(1-547) (A) or wild-type IRF3 (B) or IRF3 DBD (for NT) as well as ISRE-luc and pRL-TK were transiently transfected into PC3 cells. […] Bic, bicalutamide; EPI, EPI-001.

IRF3DBD-AR(1-547) = target: T2, IRF3DBD-AR(1-547) (Homo sapiens, UniProt P10275); assay: IRF3DBD-AR(1-547) ISRE-luc reporter assay; type: cell-based; settings: PC3 cells, 24 h
T2 construct: IRF3-AR(1-547) is the fusion of IRF3 DBD with the AR NTD (1-547); expressed in transfected cells
T2 sequence (P10275 1-547): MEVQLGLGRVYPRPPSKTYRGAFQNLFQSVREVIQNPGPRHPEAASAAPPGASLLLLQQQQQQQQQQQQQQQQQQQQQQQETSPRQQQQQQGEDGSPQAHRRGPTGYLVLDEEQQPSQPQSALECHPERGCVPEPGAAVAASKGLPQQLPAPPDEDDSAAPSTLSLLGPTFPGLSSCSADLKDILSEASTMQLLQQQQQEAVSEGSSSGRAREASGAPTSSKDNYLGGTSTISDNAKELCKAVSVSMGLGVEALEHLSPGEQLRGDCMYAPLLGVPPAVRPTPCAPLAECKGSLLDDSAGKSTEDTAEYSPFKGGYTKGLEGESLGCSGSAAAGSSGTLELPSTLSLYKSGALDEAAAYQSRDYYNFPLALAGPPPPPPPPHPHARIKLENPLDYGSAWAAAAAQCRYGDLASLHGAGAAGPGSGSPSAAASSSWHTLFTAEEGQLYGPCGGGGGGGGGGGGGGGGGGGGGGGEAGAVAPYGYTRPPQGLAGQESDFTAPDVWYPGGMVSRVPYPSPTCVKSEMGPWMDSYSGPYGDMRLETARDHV

DU145 cells = assay: MTT assay (cytotoxicity), DU145 cells; type: cell-based; settings: 72 h
Method: as §2

AR-v7 in LNCaP cells = target: T3, AR-v7 in LNCaP cells (Homo sapiens, UniProt P10275); assay: PSA-luc reporter assay in LNCaP cells transiently transfected with pIRES-AR-v7; settings: 24 h
T3 sequence (P10275 1-644 isoform P10275-3): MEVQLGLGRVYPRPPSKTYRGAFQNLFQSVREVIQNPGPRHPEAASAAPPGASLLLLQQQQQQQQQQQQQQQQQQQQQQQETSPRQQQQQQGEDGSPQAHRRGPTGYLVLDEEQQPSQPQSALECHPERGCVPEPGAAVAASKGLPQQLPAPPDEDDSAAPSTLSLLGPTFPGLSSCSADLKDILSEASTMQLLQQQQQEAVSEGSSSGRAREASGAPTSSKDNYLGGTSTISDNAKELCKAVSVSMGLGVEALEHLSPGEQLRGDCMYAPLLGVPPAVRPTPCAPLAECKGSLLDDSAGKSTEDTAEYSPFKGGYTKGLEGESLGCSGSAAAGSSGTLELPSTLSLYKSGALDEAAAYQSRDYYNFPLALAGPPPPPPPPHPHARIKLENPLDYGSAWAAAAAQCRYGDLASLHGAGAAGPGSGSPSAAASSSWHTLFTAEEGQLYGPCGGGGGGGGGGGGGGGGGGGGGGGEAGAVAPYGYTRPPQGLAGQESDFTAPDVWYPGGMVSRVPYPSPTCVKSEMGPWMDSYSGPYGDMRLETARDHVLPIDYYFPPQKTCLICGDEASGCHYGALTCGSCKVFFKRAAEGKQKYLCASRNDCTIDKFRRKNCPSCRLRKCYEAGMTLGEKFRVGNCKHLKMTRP
Method: NT, LNCaP cells were transiently transfected with pIRES vector, PSA-luc and pRL-TK. […] Cells were then transiently transfected with PSA-Luc and pRL-TK and exposed to DMSO or compounds for 24 h, in triplicate.

[2] = tested on: endogenous AR-Vs in 22Rv1 cells; assay: PSA-luc reporter assay in androgen-starved 22Rv1 cells (endogenous LBD-truncated AR variants); settings: androgen-starved 3 days, 24 h exposure
Method: NT, LNCaP cells were transiently transfected with pIRES vector, PSA-luc and pRL-TK. […] Cells were then transiently transfected with PSA-Luc and pRL-TK and exposed to DMSO or compounds for 24 h, in triplicate. NT, not transfected with PSA-luc.
The ARs were probed by N-terminal directed AR antibody (N20, Santa Cruz); B) The 22Rv1 cells were androgen-starved (in phenol red-free medium+10% CS-FBS) for 3 days to ensure the full-length AR expressed in 22Rv1 are not activated. The 22Rv1 cells were subsequently co-transfected with PSA-luc and pRL-TK plasmids. […] Cells in phenol red-free medium+10% CS-FBS were exposed to DMSO or compounds for 24 h and harvested for Western blot analysis.
The cells were androgen-starved for 3 days and transfected with PSA-Luc and pRL-TK plasmids. NT, cells were transfected with empty vector. Cells were exposed to vehicle control or compounds for 24 h.

AR-v7 = target: T4, AR-v7 (Homo sapiens, UniProt P10275); assay: AR-v7-dependent PSA-luc reporter assay in HEK293 cells; settings: 25 μM
T4 sequence (P10275 1-644 isoform P10275-3): T3 sequence (P10275 1-644 isoform P10275-3)
Method: Cells were exposed to vehicle control or compounds at designated concentrations (μM) for 48 h.

AR^v567es = target: T5, AR^v567es (Homo sapiens, UniProt P10275); settings: 25 μM; COS-1 cells; cited from earlier work
T5 construct: host or cells: COS-1
T5 sequence (P10275 with tags, fused parts or gaps limits assumed): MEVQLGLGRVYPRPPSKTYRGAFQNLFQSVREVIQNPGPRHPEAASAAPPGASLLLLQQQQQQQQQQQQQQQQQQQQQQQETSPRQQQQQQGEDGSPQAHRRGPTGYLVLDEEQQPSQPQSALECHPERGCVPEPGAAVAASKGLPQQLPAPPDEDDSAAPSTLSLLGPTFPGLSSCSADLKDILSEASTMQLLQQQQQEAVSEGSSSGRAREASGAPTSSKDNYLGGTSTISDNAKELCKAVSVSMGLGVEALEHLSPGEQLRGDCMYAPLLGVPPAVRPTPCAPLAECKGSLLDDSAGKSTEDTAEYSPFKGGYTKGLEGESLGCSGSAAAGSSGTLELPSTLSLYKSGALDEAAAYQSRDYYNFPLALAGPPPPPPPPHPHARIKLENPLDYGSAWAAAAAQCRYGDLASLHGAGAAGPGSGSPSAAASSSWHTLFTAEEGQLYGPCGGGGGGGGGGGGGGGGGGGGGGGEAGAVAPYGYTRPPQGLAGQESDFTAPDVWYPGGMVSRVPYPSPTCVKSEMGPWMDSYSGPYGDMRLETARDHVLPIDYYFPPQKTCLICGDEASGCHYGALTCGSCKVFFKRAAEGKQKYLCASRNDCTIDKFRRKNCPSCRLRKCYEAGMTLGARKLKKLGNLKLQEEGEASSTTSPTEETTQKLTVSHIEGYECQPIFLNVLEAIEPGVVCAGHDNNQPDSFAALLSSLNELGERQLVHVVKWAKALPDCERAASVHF

VP16-AR(507-919) = VP16-AR(507-919) (NTD-deleted) PSA-luc reporter assay; settings: 10 nM DHT, 24 h; PC3 or HEK293 cells
[3] = MTT assay (cytotoxicity), LNCaP cells; type: cell-based; settings: human, LNCaP cells
Method in brief: as §1

[4] = MTT assay (cytotoxicity), 22Rv1 cells; type: cell-based; settings: human, 22Rv1 cells
Method in brief: as §1

[5] = MTT assay (cytotoxicity), H1975 cells; type: cell-based; settings: human, 72 h treatment, Table 6.1
Method: as §2

[6] = MTT assay (cytotoxicity), DU145 cells; type: cell-based; settings: human, DU145 cells, Table 2.4
Method: as §2

[7] = MTT assay (cytotoxicity), MCF-7 cells; type: cell-based; settings: human, 72 h treatment, Table 6.1
Method: as §2

[8] = MTT assay (72 h), liver hepatocellular carcinoma cell line of Table 6.1; type: cell-based; settings: human, HepG2 cells (liver hepatocellular carcinoma), 72 h treatment, read-out: Cytotoxicity (IC50, μM) HepG2
[9] = MTT assay (cytotoxicity), A549 cells; type: cell-based; settings: human, 72 h treatment, Table 6.1
Method: as §2

[10] = MTT assay (cytotoxicity), MB231 cells; type: cell-based; settings: human, 72 h treatment, Table 6.1
Method: as §2

[11] = LNCaP cells, 72 h treatment, Table 6.1
[12] = 22Rv1 cells, 72 h treatment, Table 6.1

O=C(N/C=C/c1cccc(C(F)(F)F)c1)Nc1cnccn1 [Compound 558]
IC50 (LNCaP cells; 72 h, Table 2.1): 0.06 µM | IC50 (LNCaP cells; [11]): 0.06 µM | IC50 (22Rv1 cells; [12]): 0.1 µM | IC50 (22Rv1 cells; 72 h, Table 2.1): 0.1 µM | IC50 (H1975 cells): 2.4 µM | IC50 (MCF-7 cells): < 0.5 µM | IC50 [1]: 0.14 µM | IC50 (A549 cells): 0.09 µM | IC50 (MB231 cells): 0.3 µM

O=C(Nc1cccc(C(F)(F)F)c1)Nc1ccc(F)cc1NC(=O)c1cc(Cl)ccc1F [Compound 968]
activity against wild-type IRF3 (ISRE-luc) (full-length IRF3): inactive | inhibition of IRF3-AR(1-547)-dependent ISRE-luc reporter activity (IRF3DBD-AR(1-547)): potently inhibit

O=C(N/C=C/c1cc(C(F)(F)F)cc(C(F)(F)F)c1)Nc1cnccn1 [Compound 528]
IC50 (LNCaP cells; 72 h, Table 2.1): 0.12 µM | IC50 (LNCaP cells; [11]): 0.12 µM | IC50 (22Rv1 cells; [12]): < 1 µM | IC50 (22Rv1 cells; 72 h, Table 2.1): < 1 µM | activity against wild-type IRF3 (ISRE-luc) (full-length IRF3): inactive | IC50 (DU145 cells; Table 2.1): < 1 µM | inhibition of IRF3-AR(1-547)-dependent ISRE-luc reporter activity (IRF3DBD-AR(1-547)): potently inhibit

CC(C)(c1ccc(OCC(O)CO)cc1)c1ccc(OCC(O)CCl)cc1 (stereo not drawn) [EPI-001, reference compound]
activity in LNCaP cells with forced expression of AR-v7 (PSA-luc) (AR-v7 in LNCaP cells): remain active | activity against constitutive activation of endogenous AR-Vs in 22Rv1 cells (PSA-luc) [2]: active | inhibition of constitutive activation of AR-v7 (PSA-luc) (AR-v7): inhibit; also recorded: active | suppression of constitutive activation of AR^v567es in PSA-Luc reporter assay (AR^v567es): half

N#Cc1ccc(NC(=O)N/C=C/c2cccc(C(F)(F)F)c2)cc1C(F)(F)F [Compound 410]
IC50 (LNCaP cells; 72 h, Table 2.2): 4.4 µM | IC50 (LNCaP cells; [11]): 1.8 µM | IC50 (22Rv1 cells; [12]): 2.5 µM | inhibition of DHT-induced activation of VP16-AR(507-919) (PSA-luc) (VP16-AR(507-919)): inactive | activity against wild-type IRF3 (ISRE-luc) (full-length IRF3): inactive | IC50 (H1975 cells): 2.5 µM | IC50 (DU145 cells; Table 2.2): 10.4 µM | inhibition of IRF3-AR(1-547)-dependent ISRE-luc reporter activity (IRF3DBD-AR(1-547)): potently inhibit | IC50 (MCF-7 cells): 2.6 µM | IC50 [1]: 0.92 µM | IC50 (A549 cells): 2.7 µM | IC50 (MB231 cells): 4 µM

O=C(Nc1cccc(Br)c1)Nc1cc(NC(=O)Nc2cccc(C(F)(F)F)c2)cc(C(F)(F)F)c1 [Compound 973]
activity against wild-type IRF3 (ISRE-luc) (full-length IRF3): inactive | inhibition of IRF3-AR(1-547)-dependent ISRE-luc reporter activity (IRF3DBD-AR(1-547)): potently inhibit

N#Cc1ccc(NC(=O)N/C=C/c2cccs2)cc1C(F)(F)F [Compound 428]
IC50 at 72 h ([3]; 72 h, Table 2.4): 2.1 µM | IC50 at 72 h ([4]; 72 h, Table 2.4): 3.7 µM | inhibition of DHT-induced activation of VP16-AR(507-919) (PSA-luc) (VP16-AR(507-919)): inactive | activity against wild-type IRF3 (ISRE-luc) (full-length IRF3): inactive | IC50 at 72 h [5]: 7.7 µM | IC50 at 72 h [6]: 5.1 µM | inhibition of IRF3-AR(1-547)-dependent ISRE-luc reporter activity (IRF3DBD-AR(1-547)): potently inhibit | IC50 at 72 h [7]: 5.2 µM | IC50 at 72 h [8]: 2.4 µM | IC50 at 72 h [9]: 4.7 µM | IC50 at 72 h [10]: 7.6 µM

O=C(Nc1cccc(C(F)(F)F)c1)Nc1ccc(C(=O)Nc2ccccc2F)c(C(F)(F)F)c1 [Compound 822]
IC50 at 72 h ([3]; 72 h treatment, Table 6.1): 3 µM | IC50 at 72 h ([4]; 72 h treatment, Table 6.1): 4 µM | IC50 at 72 h [5]: 6.3 µM | IC50 at 72 h [7]: 4.5 µM | IC50 at 72 h [8]: 3.2 µM | IC50 at 72 h [9]: 6 µM | IC50 at 72 h [10]: 8.1 µM
